Data reported in EP0640747B1, “Boiler system pH/phosphate program control method” (NALCO CHEMICAL COMPANY, priority 1993, dated 1995).

Assay: thermal stability of inert fluorescent tracers under boiler conditions
Type: physicochemical
Settings: for thermally stable (substantially inert) for time: at 285 °C (545 °F); for thermally stable (substantially inert) at pressures up to: for time periods commensurate with commercial boiler holding times; for thermally stable (substantially inert) at temperatures up to: temperature limit, also printed as 1004 °F
From the text: Among the substantially boiler-system-inert fluorescent compounds are the mono-, di- and trisulfonated naphthalenes, including their water-soluble salts, particularly the various naphthalene mono- and disulfonic acid isomers, which are a preferred inert tracer(s) for use in the present invention. The naphthalene mono- and disulfonic acid isomers are water-soluble, generally available commercially and easily detectable and quantifiable by known fluorescence analysis techniques. Preferred naphthalene mono- and disulfonic acid isomers are the water-soluble salts of naphthalene sulfonic acid ("NSA"), such as 2-NSA, and naphthalene disulfonic acid ("NDSA" or "NDA"), for instance 1,5-NDSA. Many of these inert tracer(s) (mono-, di- and trisulfonated naphthalenes and mixtures thereof) are extremely compatible with the environments of most boiler systems.

Row | thermally stable (substantially inert) for time | thermally stable (substantially inert) at pressures up to | thermally stable (substantially inert) at temperatures up to | Structure (SMILES)
1 | at least 24 hours | about 1,500 psig | at least 540 °C | O=S(=O)(O)c1cccc2c(S(=O)(=O)O)cccc12 [1,5-NDSA, 1,5-naphthalene disulfonic acid]
2 | at least 24 hours | about 1,500 psig | at least 540 °C | O=S(=O)(O)c1ccc2ccccc2c1 [2-NSA, 2-naphthalene sulfonic acid]
